Results on 10 compounds are retold here after BindingDB's records for doi:10.1016/s0960-894x(98)00214-5 (Glaxowellcome Medicines Research Center, 1999).

The target of experiment [1] is HIV-2 reverse transcriptase (Human immunodeficiency virus 2). The experiment in a line: Evaluated for inhibition of HIV-2 reverse transcriptase.
The target is the same in experiment [2]. The experiment is described as follows: Compound was evaluated for inhibition of HIV-2 reverse transcriptase using rC.dG and [3H]-dGTP as substrates at 100 ug/mL.
Experiment [3] shares this target. The description is as above. The source holds these as a separate data set.

For the compound `O=C(CCCC(=O)Nc1ccc(Cl)cc1C(=O)O)Nc1ccc(Cl)cc1C(=O)O` [2-({5-[(2-carboxy-4-chlorophenyl)amino]-5-oxopentanoyl}amino)-5-chlorobenzoic acid], the IC50 in experiment [1] came to 9.6 µM.
On the same count and under the same terms, as for `O=C(CCCCC(=O)Nc1ccc(Cl)cc1C(=O)O)Nc1ccc(Cl)cc1C(=O)O` [2-({6-[(2-carboxy-4-chlorophenyl)amino]-6-oxohexanoyl}amino)-5-chlorobenzoic acid], the figure is 1.8 µM.
On to `O=C(CCCCC(=O)Nc1ccccc1C(=O)O)Nc1ccccc1C(=O)O` [2-({6-[(2-carboxyphenyl)amino]-6-oxohexanoyl}amino)benzoic acid], for which, in experiment [2], the IC50 stood at 9 µM.
With `COc1ccc(NC(=O)CCCCC(=O)Nc2ccc(OC)cc2C(=O)O)c(C(=O)O)c1` [2-[4-(2-carboxy-4-methoxyphenylcarbamoyl)butylcarboxamido]-5-methoxybenzoic acid], in experiment [1], the IC50 was 4.3 µM.
In turn, `Cc1ccc(NC(=O)CCCCC(=O)Nc2ccc(C)cc2C(=O)O)c(C(=O)O)c1` [2-[4-(2-carboxy-4-methylphenylcarbamoyl)butylcarboxamido]-5-methylbenzoic acid] displayed an IC50 in experiment [2] of 9.2 µM.
As for `CSc1ccc(NC(=O)CCCCC(=O)Nc2ccc(SC)cc2C(=O)O)c(C(=O)O)c1` [2-[4-(2-carboxy-4-methylsulfanylphenylcarbamoyl)butylcarboxamido]-5-methylsulfanylbenzoic acid], the IC50 in experiment [1] was 6.9 µM.
`O=C(CCCCC(=O)Nc1ccc(Br)cc1C(=O)O)Nc1ccc(Br)cc1` [5-Bromo-2-[5-(4-bromo-phenylcarbamoyl)-pentanoylamino]-benzoic acid] gave an IC50 in experiment [2] of 32 µM.
On to `O=C(CCCCC(=O)Nc1ccc(Br)cc1C(=O)O)Nc1ccc(Br)cc1C(=O)O` [5-bromo-2-({6-[(4-bromo-2-carboxyphenyl)amino]-6-oxohexanoyl}amino)benzoic acid], for which, in experiment [1], half-maximal inhibition (IC50) required 1.7 µM.
The compound `O=C(CCCCCCC(=O)Nc1ccc(Br)cc1C(=O)O)Nc1ccc(Br)cc1C(=O)O` [5-bromo-2-[6-(4-bromo-2-carboxyphenylcarbamoyl)hexylcarboxamido]benzoic acid] yielded an IC50 in experiment [3] of 7.4 µM. This counts as single-digit micromolar.
`O=C(Nc1ccc(Br)cc1C(=O)O)c1ccc(C(=O)Nc2ccc(Br)cc2C(=O)O)nc1` [5-bromo-2-{[(5-{[(4-bromo-2-carboxyphenyl)amino]carbonyl}pyridin-2-yl)carbonyl]amino}benzoic acid] showed an IC50 in experiment [2] of 5.5 µM.
